Results published in patent US5861426A, “Nitro compounds of the formula A-Xi -NO2 and their compositions having anti-inflammatory, analgesic and anti-thrombotic activities” (Nicox S.A., priority 1994, dated 1999).
Like-named read-outs stand apart in the source and are kept apart here.

Experiments:
[1] = tested on: carrageenin-oedema; test: Anti-inflammatory activity, carrageenin-oedema method; type: in vivo; conditions: rats, oral 3 to 30 mg/Kg in carboxymethylcellulose; natural product = 1.0
Description: (§6) Study of the anti-inflammatory (I) and analgesic (II) properties (pharmacodynamics) and gastrointestinal tolerance (III) (toxicity) of the test compounds after oral administration of doses ranging from 3 to 30 mg/Kg in carboxymethylcellulose suspensions and constructing dose-responsecurves. […] Activities are expressed as the potency ratio compared to the natural product used as a unit standard.

[2] = tested on: Swiss mice; test: Analgesic activity (Hendershot et al.); type: in vivo; conditions: oral 3 to 30 mg/Kg in carboxymethylcellulose, natural product = 1.0
Description: as §6

[3] = tested on: gastropathy; test: Gastric tolerance, severity of induced gastropathy; conditions: rats, oral 3 to 30 mg/Kg in carboxymethylcellulose; natural product = 1.0
Description: Gastric tolerance was measured by oral administration to rats assessing the severity of the gastropathy induced in accordance with the criteria described by Wallace et al. (Am. J. Physiol. 259, G642, 1990).
Study of the anti-inflammatory (I) and analgesic (II) properties (pharmacodynamics) and gastrointestinal tolerance (III) (toxicity) of the test compounds after oral administration of doses ranging from 3 to 30 mg/Kg in carboxymethylcellulose suspensions and constructing dose-responsecurves.
Activities are expressed as the potency ratio compared to the natural product used as a unit standard. The nitroderivative is that of the shown examples, the natural reference compound is that shown as a reference.

[4] = tested on: human platelets stimulated by thrombin; test: Platelet anti-aggregating activity in vitro; type: cell-based; conditions: 10^-5 to 10^-7 molar range, natural product = 1.0
From the text: (§1) Example of the anti-cyclooxygenase (I), platelet anti-aggregating (II) and vasodilative (III) properties of the test compounds tested in vitro at concentrations in the molar range from 10^-5 to 10^-7 of the product in water/alcohol with the addition of small amounts of DMSO (dimethylsulphoxide). The activities are expressed as the potency ratio versus the natural product used as a unit standard, as stated in Table

[5] = tested on: isolated rat aorta; test: Vasodilative activity, inhibition of contraction induced by epinephrine; conditions: in vitro, 10^-5 to 10^-7 molar range
From the text: as §1

[6] = tested on: cyclo-oxygenase; test: Anti-cyclooxygenase activity; type: cell-based
Description: (§2) The activity inhibiting cyclo-oxygenase was determined in isolated cells. Endothelial cells of bovine aorta were used as a source of COX-1 and macrophage line J774.2 as a source of COX-2. The same conditions described by Mitchell et al. (Proc. Nat. Acad. Sci. 90, 11693, 1993) for growth and the viability test were used.
(§3) In brief, the cells were incubated for 30 minutes with scalar concentrations of the test product and the substrate (arachidonic acid) was then added and incubated for another 15 minutes. Enzyme activity was determined radioimmunologically by measuring the formation of 6-keto-PGF 1 alpha. In the case of cell lines J.774.2, the cells were incubated for 12 hours with endotoxin to promote COX-2 formation.
as §1

[7] = biological target: T1, COX-1 (Bos taurus, UniProt O62664); test: COX-1 inhibition in isolated cells; type: cell-based, bovine; conditions: read-out: COX-1 response, % of the controls with response variability
T1 construct: Endothelial cells of bovine aorta were used as a source of COX-1; endogenous in cells; host or cells: bovine aortic endothelial cells
T1 sequence (O62664 25-600): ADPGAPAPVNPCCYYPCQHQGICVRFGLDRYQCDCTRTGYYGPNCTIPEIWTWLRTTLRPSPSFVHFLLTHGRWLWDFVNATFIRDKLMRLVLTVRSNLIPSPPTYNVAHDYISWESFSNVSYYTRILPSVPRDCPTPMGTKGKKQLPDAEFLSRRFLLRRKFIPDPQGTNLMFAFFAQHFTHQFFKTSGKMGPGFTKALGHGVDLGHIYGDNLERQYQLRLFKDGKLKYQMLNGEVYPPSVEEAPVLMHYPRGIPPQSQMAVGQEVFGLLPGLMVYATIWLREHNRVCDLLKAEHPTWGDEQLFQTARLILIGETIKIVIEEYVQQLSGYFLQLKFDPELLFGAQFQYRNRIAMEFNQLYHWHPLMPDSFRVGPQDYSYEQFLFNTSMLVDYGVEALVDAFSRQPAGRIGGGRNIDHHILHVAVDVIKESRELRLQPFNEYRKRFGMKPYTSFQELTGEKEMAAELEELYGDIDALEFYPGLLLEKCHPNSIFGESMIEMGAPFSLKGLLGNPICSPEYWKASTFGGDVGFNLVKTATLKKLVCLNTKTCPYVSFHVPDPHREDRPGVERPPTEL
Description: as §2, §3
(§4) Study of the anti-cyclooxygenase (COX-1/COX-2) properties in isolated cells.
(§5) Response expressed as a % of the controls with relative response variability.

[8] = biological target: T2, COX-2 (Mus musculus, UniProt Q05769); test: COX-2 inhibition in isolated cells; type: cell-based
T2 construct: endogenous in cells; host or cells: J774.2 macrophages, 12 h with endotoxin
T2 sequence (Q05769 18-604): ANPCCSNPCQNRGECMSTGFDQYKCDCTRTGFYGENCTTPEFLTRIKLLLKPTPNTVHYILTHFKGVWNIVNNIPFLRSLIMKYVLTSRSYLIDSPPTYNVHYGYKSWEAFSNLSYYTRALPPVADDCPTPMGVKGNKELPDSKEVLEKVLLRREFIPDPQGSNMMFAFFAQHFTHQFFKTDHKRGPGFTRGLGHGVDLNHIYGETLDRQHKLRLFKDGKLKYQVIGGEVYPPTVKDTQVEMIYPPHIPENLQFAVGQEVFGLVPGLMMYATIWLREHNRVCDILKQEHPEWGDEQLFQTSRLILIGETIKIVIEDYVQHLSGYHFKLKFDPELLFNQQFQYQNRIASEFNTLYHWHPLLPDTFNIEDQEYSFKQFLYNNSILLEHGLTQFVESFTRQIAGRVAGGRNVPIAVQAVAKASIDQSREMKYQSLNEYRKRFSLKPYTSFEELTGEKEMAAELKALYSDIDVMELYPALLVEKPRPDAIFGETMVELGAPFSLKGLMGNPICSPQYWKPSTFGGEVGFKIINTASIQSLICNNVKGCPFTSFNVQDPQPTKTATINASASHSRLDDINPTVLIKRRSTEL
Description: as §2, §3, §4, §5

[9] = tested on: nitrosynthetase (NOS); test: Nitrosynthetase (NOS) activity induced by LPS in rats; type: in vivo, rat; conditions: oral, LPS only = 100
Description: The nitrosynthetase inhibition activity induced by lipopolysaccharide (LPS) was determined in rat neutrophils and stomach after administration of one of the test compounds and compared with that obtained after treatment of the suspension vehicle only.
In brief, Wistar rats fasting for 24 hours before treatment were orally administered the test product (10 mg/Kg) and intravenously (caudal vein) administered LPS (5 mg/Kg).
Four hours later the animals were sacrificed and the blood--for neutrophils isolation--and the stomach taken.
Enzyme activity was determined in accordance with the method described by Assreuy et al. (Br. J. Pharmacol. 108, 833, 1993).
Study of the inhibitory properties of the nitrosynthetase (NOS) activity induced by liposaccharide (LPS) in rats using oral doses ranging from 5 to 20 mg/Kg suspended in a carboxymethylcellulose base.

[10] = tested on: gastric mucous membrane; test: Gastric irritation of Tween 80 / dimethylsulphoxide suspensions; type: in vivo; conditions: suspension with Tween 80 and dimethylsulphoxide (0.1% and 1% for nitroxybutylflurbiprofen; lower amounts for NO-flurbiprofen derivative)
[11] = J774.2, read-out: COX-2 response, % of the controls with response variability

SMILES	anti-inflammatory properties (I), potency ratio versus natural reference product [1]	analgesic properties (II), potency ratio versus natural reference product [2]	gastrointestinal tolerance (III) (toxicity), potency ratio versus natural reference product [3]	platelet anti-aggregating (II), potency ratio versus natural product [4]	vasodilative (III), % of inhibitory action of the vasospasm induced by epinephrine [5] [%]	direct inhibition of cyclo-oxygenase COX-1 and COX-2 ([6]; Table 4 data)	anti-cyclooxygenase (I), potency ratio versus natural product ([6]; in vitro, 10^-5 to 10^-7 molar range, natural product = 1.0)	remaining activity at 100 µg/mL ([7]; 0.1 mg/ml, endothelial cells of bovine aorta) [%]	remaining activity at 1000 µg/mL ([7]; 1.0 mg/ml, endothelial cells of bovine aorta) [%]	remaining activity at 100 µg/mL ([8]; 0.1 mg/ml, macrophage line J774.2 with endotoxin, read-out: COX-2 response, % of the controls with response variability) [%]	remaining activity at 1000 µg/mL ([8]; 1.0 mg/ml, macrophage line J774.2 with endotoxin, read-out: COX-2 response, % of the controls with response variability) [%]	NOS, neutrophils; inhibition relative to the group treated with LPS only ([9]; neutrophils)	NOS, stomach; inhibition relative to the group treated with LPS only ([9]; stomach)	remaining activity at 100 µg/mL [7] [%]	remaining activity at 1000 µg/mL [7] [%]	remaining activity at 100 µg/mL [8, 11] [%]	remaining activity at 1000 µg/mL [8, 11] [%]	irritant effect on gastric mucous membrane [10]
O=C(Cc1ccccc1Nc1c(Cl)cccc1Cl)OCCOCCO[N+](=O)[O-] [Example 1b, 2-{N-[2,6-(dichloro)phenyl]amino}phenylacetate of 2-[2-(nitroxy)ethoxy]ethyl]	1.3	0.9	0.3	1.8	50	capable of directly inhibiting cyclo-oxygenase COX-1 and COX-2	1.8	49 ± 6	29 ± 4	45 ± 3	22 ± 4	52	40	–	–	–	–	–
CC(C(=O)OCCCCO[N+](=O)[O-])c1ccc(-c2ccccc2)c(F)c1 (stereo not drawn) [FLURBIPROFEN NITROXYBUTYLESTER]	–	–	–	–	–	–	–	–	–	–	–	–	–	48 ± 18	29 ± 13	46 ± 23	22 ± 14	irritant to the gastric mucous membrane
